Source: article PMC6718988, “Bioactivity and Bactericidal Mechanism of Histidine-Rich β-Hairpin Peptide Against Gram-Negative Bacteria” (International Journal of Molecular Sciences, 2019)
≈ marks a conversion by molar mass, not a printed value. Where a SMILES comes first, the peptide text is derived from it. [ ]: non-standard residue; d: D form.

Key:
E. coli ATCC25922 [1] = assay: Membrane depolarization (diSC3-5); assay type: cell-based; conditions: E. coli ATCC25922, 0.5, 1 and 2×MIC
Description: The effects of the antimicrobial peptides on the plasma membrane potential were determined used cell membrane potential-sensitive fluorescent dye diSC3-5. Briefly, E. coli ATCC25922 cells were incubated in MHB to mid-log phase at 37 °C, rinsed 3 times with HEPES buffer, adjusted to an OD600 of 0.05. Next, KCl was used to adjust the final concentration to 0.4 μM and diSC3-5 was added. The mixture was incubated for 30 min at 37 °C. The antibacterial peptides at concentrations of 0.5, 1 and 2×MIC were then added to a cuvette containing 2 mL of bacterial solution, and the fluorescence change was recorded from 0 to 600 s with an F-4500 fluorescence spectrophotometer (Hitachi, Tokyo, Japan) (excitation λ = 622 nm, emission λ = 670 nm). Bacteria without antimicrobial peptides were used to determine the background fluorescence.

[2] = LPS binding assay (BODIPY-TR-cadaverine displacement); set-up: species or system E. coli; conditions: peptide concentration higher than 4 μM; 50 μg/mL LPS, 5 μg/mL BODIPY-TR cadaverine, Tris 50 mM pH 7.4; 100% = 10 μg/mL polymyxin B
Description: The abilities of the antimicrobial peptides to bind LPS were determined using the fluorescent dye BODIPY-TR-cadaverine (BC) substitution method. LPS (50 μg/mL) from E. coli O111:B4 was incubated with BC (5 μg/mL) in Tris buffer (50 mm, pH 7.4) for 4 h. Next, 50 μL of various concentrations of peptides (final concentration of 1–64 μM) and 50 μL of LPS-BC mixture were added to 96-well plates, and the fluorescence was measured using a fluorescence spectrophotometer (Infinite 200 pro, Tecan, China) at an excitation wavelength of 580 nm and an emission wavelength of 620 nm. Each test was performed three times. The values were converted to %∆F (AU) using the following equation:%ΔF (AU) = [(Fobs − F0)/(F100 − F0)] × 100 where Fobs is the fluorescence value measured in the presence of the peptide, F0 is the initial fluorescence of LPS with BC without the addition of peptides, F100 is the fluorescence value produced by adding 10 μg/mL polymyxin B.

[3] = test system: TNF-α production in RAW264.7 cells; assay: Inhibition of endotoxin-induced inflammation (LPS-stimulated TNF-α production); assay type: cell-based, murine; conditions: 32 μM peptide, 100 ng/mL LPS, 18 h, 37 °C, ELISA
Description: TNF-α production by the RAW264.7 cells was stimulated with LPS to evaluate the LPS neutralization characteristics of the peptides. Briefly, (1.0–2.0) × 10^5 RAW264.7 cells were plated in 96-well plates and stimulated with LPS (100 ng/mL) for 18 h at 37 °C in the absence or presence of peptides (2–64 μM). The negative and positive controls were untreated cells and cells treated with LPS alone. The supernatant was used to evaluate the endotoxin neutralizing ability of the antimicrobial peptides by analyzing the TNF-α production using […] ELISA (Boster, Wuhan, China).

E. coli ATCC25922 [4] = assay: microbe, parasite or virus in culture; conditions: ATCC25922, 24 h
Description: (§1) The minimum inhibitory concentration (MIC) was measured using a broth microdilution method to determine the in vitro antimicrobial activity of the peptides. Bacteria were inoculated into MHB and incubated overnight at 37 °C until the bacteria were in log phase growth. Next, we corrected the bacterial concentration to approximately 1 × 10^5 CFU/mL using MHB. The peptides were added to 96-well plates containing 0.01% acetic acid and 0.2% bovine serum albumin at final concentrations ranging from 0.25 to 128 μM. After incubation at 37 °C for 24 h, the absorbance was measured at 492 nm using a microplate reader (Tecan GENios F129004, Tecan, Austria). Broth containing microbes and […] were used as positive and negative controls, respectively. The lowest peptide concentration with no increase in absorbance compared to that of the negative control was defined as the MIC. The experiments were independently performed three times.

E. coli K88 = assay: microbe, parasite or virus in culture; conditions: E. coli K88; MHB, about 1 × 10^5 CFU/mL, 37 °C, 24 h; three independent experiments
Description: as §1

S. pullorum C7913 = assay: microbe, parasite or virus in culture; conditions: C7913, 24 h
Description: as §1

E. coli UB1005 = assay: microbe, parasite or virus in culture; conditions: UB1005, 24 h
Description: as §1

S. epidermidis ATCC12228 = assay: microbe, parasite or virus in culture; conditions: ATCC12228, 24 h
Description: as §1

P. aeruginosa ATCC27853 = assay: microbe, parasite or virus in culture; conditions: ATCC27853, 24 h
Description: as §1

[5] = test system: methicillin-resistant S. aureus ATCC43300; assay: microbe, parasite or virus in culture; conditions: ATCC43300, 24 h
Description: as §1

E. coli K99 = assay: microbe, parasite or virus in culture; conditions: E. coli K99; MHB, about 1 × 10^5 CFU/mL, 37 °C, 24 h; three independent experiments
Description: as §1

S. aureus ATCC29213 = assay: microbe, parasite or virus in culture; conditions: ATCC29213, 24 h
Description: as §1

[6] = RP-HPLC retention time as measure of hydrophobicity; assay type: physicochemical; conditions: analytical Kromasil C18 column 4.6 mm × 250 mm, 5.0 μm, acetonitrile, flow 1.0 mL/min, used as measure of hydrophobicity
Description: The hydrophobicities of the peptides in solution were reliably mirrored by their high-performance liquid chromatography (HPLC)retention times. The retention times for peptide HI2, HW2, HV2, HF2, and PG-1 were 11.13, 10.55, 12.20, 18.06 and 12.56 min, respectively, indicating the following hydrophobic order: HF2 > PG-1 > HV2 > HI2 > HW2(Table 1).
The designed peptides were synthesized and purified by GL Biochem (Shanghai, China). Acetonitrile was used on an analytical Kromasil C18 column (4.6 mm × 250 mm, 5.0 μm, LC 3000, Beijing, China), and the purity of the peptides was determined to be greater than 95% via reversed-phase high-performance liquid chromatography (RP-HPLC) with a flow rate of 1.0 mL/min. The experimental molecular weights of the peptides were evaluated via ESI-MS analysis, and these values were very close to the calculated masses. Next, the peptides were dissolved in deionized water at a concentration of 2.56 mM, and the peptide solutions were stored at −20 °C.

Gram-negative bacteria = assay: MICs against Gram-negative strains (geometric mean, range); assay type: cell-based
Description: as §1

**Q.** What does the source list for `CC(C)[C@H](NC(=O)CNC(=O)[C@H]1CCCN1C(=O)[C@@H](NC(=O)[C@H](Cc1c[nH]cn1)NC(=O)[C@@H](NC(=O)[C@H](Cc1c[nH]cn1)NC(=O)[C@@H](NC(=O)[C@H](CCCNC(=N)N)NC(=O)[C@@H](N)CCCNC(=N)N)C(C)C)C(C)C)C(C)C)C(=O)N[C@@H](Cc1c[nH]cn1)C(=O)N[C@H](C(=O)N[C@@H](Cc1c[nH]cn1)C(=O)N[C@H](C(=O)N[C@@H](CCCNC(=N)N)C(=O)N[C@@H](CCCNC(=N)N)C(N)=O)C(C)C)C(C)C` [HV2] (H-RRVHVHV[dP]GVHVHVRR-NH2; N-terminus assumed)?
**A.** plasma membrane depolarization (diSC3-5 release) (E. coli ATCC25922 [1]): more rapid and stronger plasma membrane depolarization relative to PG-1; LPS binding ability relative to binding activity of polymyxin B [2]: higher than 60%; neutralizing activity against LPS (TNF-α level) [3]: ~100%; MIC (E. coli ATCC25922 [4]): 8 µM (≈ 15.5 µg/mL); MIC (E. coli K88): 4 µM (≈ 7.76 µg/mL); MIC (S. pullorum C7913): 8 µM (≈ 15.5 µg/mL); MIC (E. coli UB1005): 8 µM (≈ 15.5 µg/mL); MIC (S. epidermidis ATCC12228): >128 µM; MIC (P. aeruginosa ATCC27853): 8 µM (≈ 15.5 µg/mL); MIC [5]: >128 µM; MIC (E. coli K99): 8 µM (≈ 15.5 µg/mL); MIC (S. aureus ATCC29213): >128 µM; Retention Time [6]: 12.20 min; MBC (GM), geometric mean of MICs, Gram (−) (Gram-negative bacteria; Gram-negative strains, 256 μM used where no activity at 128 μM): 7.13 µM; MIC against Gram-negative bacteria (Gram-negative bacteria; range over the Gram-negative strains of Table 2): 4 to 8 µM
